Laboratory results from US10568921B1, “Extract of Vicia faba beans” (priority 2018, dated 2020).
Where “and” joins values, the source holds several entries; their conditions need not be identical. Equal entries are not always repeated.

Tested on: strychnine-induced convulsions
Test: Strychnine-induced convulsions in mice, i.p. pretreatment with test substance
Format: in vivo, BALB/c mice
[1] = 50 mg/kg i.p. + strychnine 0.45 mg/kg i.p., individual mice No. 1-10

## CCC1(c2ccccc2)C(=O)NC(=O)NC1=O [Phenobarbitone, phenobarbitone]
[1]
  Survival recovered time after strychnine injection: 80 minutes (3×) and 90 minutes and 70 minutes (3×) and 75 minutes (3×)
  Time to first convulsion: 5 minutes and 7 minutes (3×) and 6.5 minutes and 8 minutes (2×) and 9 minutes (2×) and 10 minutes
50 mg/kg i.p. + strychnine 0.45 mg/kg i.p., mean of 10 mice
  Survival recovered time after strychnine injection, mean: 76.5 ± 5.58 min
50 mg/kg i.p. before strychnine (A-1 twenty minutes, phenobarbitone 15 minutes), mice
  Protection against strychnine-induced convulsions (in words): protected against the strychnine-induced convulsions, completely
